In the oligonucleotide strings, read from the 5' end, every base follows the letter of its sugar. An asterisk marks phosphorothioate; unmarked linkages are phosphodiester. Other units and linkages are bracketed, terminal groups are in braces. A string of capitals states the bases alone. d = 2'-deoxy (DNA); m = 2'-O-methyl
How the values were obtained:
Assay type in all cases: cell-based
TLR8 = target: T1, TLR8 (Homo sapiens, UniProt Q9NR97); assay: HEK-TLR8 NF-κB-luciferase reporter, R848 or Motolimod stimulation (potentiation or inhibition); parameters: expressed in transfected cells; host or cells: 293XLhTLR8 (HEK293); conditions: HEK-TLR8; 500 nM ASO ~30 min; R848 overnight
T1 sequence (Q9NR97 27-1041): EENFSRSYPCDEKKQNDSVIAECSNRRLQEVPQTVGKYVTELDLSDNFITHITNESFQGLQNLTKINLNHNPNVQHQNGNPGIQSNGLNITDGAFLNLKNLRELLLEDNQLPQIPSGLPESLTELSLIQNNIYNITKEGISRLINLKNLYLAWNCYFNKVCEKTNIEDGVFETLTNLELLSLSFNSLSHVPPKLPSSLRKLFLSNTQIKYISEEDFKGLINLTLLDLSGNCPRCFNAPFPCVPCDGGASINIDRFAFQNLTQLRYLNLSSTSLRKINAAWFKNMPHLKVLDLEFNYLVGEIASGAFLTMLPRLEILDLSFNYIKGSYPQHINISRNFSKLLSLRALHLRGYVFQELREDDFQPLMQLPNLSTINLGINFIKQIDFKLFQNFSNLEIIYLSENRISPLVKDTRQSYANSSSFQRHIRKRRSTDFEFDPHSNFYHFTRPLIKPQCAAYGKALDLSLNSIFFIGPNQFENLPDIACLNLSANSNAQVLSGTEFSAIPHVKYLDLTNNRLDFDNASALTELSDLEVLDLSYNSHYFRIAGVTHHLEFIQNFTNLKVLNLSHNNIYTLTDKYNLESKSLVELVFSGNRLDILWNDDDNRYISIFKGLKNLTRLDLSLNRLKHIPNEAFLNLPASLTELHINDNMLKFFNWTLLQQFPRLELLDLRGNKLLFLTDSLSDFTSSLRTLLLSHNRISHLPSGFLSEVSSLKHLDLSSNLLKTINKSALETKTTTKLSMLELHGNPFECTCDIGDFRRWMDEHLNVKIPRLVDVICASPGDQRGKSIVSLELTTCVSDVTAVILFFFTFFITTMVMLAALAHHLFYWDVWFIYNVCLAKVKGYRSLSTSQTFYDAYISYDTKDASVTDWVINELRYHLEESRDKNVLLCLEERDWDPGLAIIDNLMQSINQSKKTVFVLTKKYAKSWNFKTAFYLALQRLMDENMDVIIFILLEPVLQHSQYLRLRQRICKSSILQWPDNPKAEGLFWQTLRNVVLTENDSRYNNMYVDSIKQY
Procedure: (§1) In such examples, potentiation of TLR8 activity can be identified by observation of an overall increased TLR8 response of the cell population, or a higher proportion of cells having TLR8-positive activity as compared to a negative control condition in which cells are treated with TLR8 agonist in the absence of the oligonucleotide (or in the presence of an appropriate control non-potentiating agent). In one example, 293XLhTLR8 (referred to as HEK-TLR8) cells are transfected with pNF-κB-Luc4 reporter, incubated with an oligonucleotide, and then stimulated with R848. TLR8 activity can be determined by a luciferase assay, which measures activated NF-κB by luminescence. TLR8 activity can also be analysed by measuring cytokine levels, for example by ELISA.
as §1, with “inhibition” for “potentiation”, “decreased” for “increased”, “lower” for “higher”, “positive” for “negative”, “inhibitory” for “non-potentiating”
(§2) For cGAS stimulations, cells were treated for indicated duration with ASOs, prior to transfection with ISD70 (human cells) or ISD45 (mouse cells) (the ASOs were not washed off prior to ISD transfection unless otherwise indicated). The cGAS ligands ISD45 (Stetson and Medzhitov, 2006) and ISD70 (also known as VACV-70 (Unterholzner et al., 2010)) (Table 1) were resuspended as follows: 5 1d of sense and 5 μl of antisense strands at 10 μg/μl were added to 90 μl PBS under sterile conditions, heated at 75° C. for 30 min, prior to letting cool down at room temperature and aliquoting (stock at 1 μg/1 l). The ISDs were transfected at a concentration of […] at a ratio of 1 μg:1 μl with Lipofectamine 2000 in Opti-MEM (Thermo Fisher Scientific). HEK-TLR3, HEK-TLR7 and […] were treated with indicated concentration of ASOs for 20-50 min, prior to stimulation with poly(I:C) (Invivogen), R848 (Invivogen), Motolimod (MedChemExpress) and the Class B CpG oligonucleotides ODN 2006 (synthesised by IDT and resuspended in RNase-free TE buffer [Table 1]), respectively. The TLR2/1 agonist PAM3CSK4 (Invivogen), the TLR4 agonist lipopolysaccharide (Invivogen), the Class B CpG oligonucleotides ODN 1826 (synthesised by IDT and resuspended in RNase-free TE buffer), the mouse Sting agonist DMXAA (Cayman) and the human STING agonist (compound #3 from (Raanjulu et al., 2018), referred to as GSK herein—kind gift from Cancer Therapeutics CRC, Australia) were used at indicated concentrations. Aspirin (Sigma—A2093) was resuspended in pure medium to 10 mM, filter sterilised and added to the cells at 2 mM final. All ASOs were synthesised by Integrated DNA Technologies (IDT), and resuspended in RNase-free TE buffer, pH 8.0 (Thermo Fisher Scientific). Cell viability was assessed by adding 1× fresh resazurin solution to the wells (10λ solution made up with 7 mg resazurin [Sigma—R7017] dissolved in 3.5 ml PBS, sterile filtered at […]) for 4 h, prior to reading at with a Fluostar OPTIMA (BMG LABTECH) plate-reader (fluorescence: Excitation 535 nm, Emission 590); wells with medium only and 1× resazurin were used as blanks.

cGAS = cGAS (Homo sapiens, UniProt Q8N884); assay: ISD70-driven IP-10 (and IFN-β) production in THP-1 cells, ELISA; parameters: endogenous in cells; host or cells: THP-1 (undifferentiated); conditions: THP-1; 2′OMe or PS oligos, 100-250 nM, pre-treatment as in figure legends; ISD70 2.5 μg/ml
Sequence of cGAS (Q8N884 whole entry): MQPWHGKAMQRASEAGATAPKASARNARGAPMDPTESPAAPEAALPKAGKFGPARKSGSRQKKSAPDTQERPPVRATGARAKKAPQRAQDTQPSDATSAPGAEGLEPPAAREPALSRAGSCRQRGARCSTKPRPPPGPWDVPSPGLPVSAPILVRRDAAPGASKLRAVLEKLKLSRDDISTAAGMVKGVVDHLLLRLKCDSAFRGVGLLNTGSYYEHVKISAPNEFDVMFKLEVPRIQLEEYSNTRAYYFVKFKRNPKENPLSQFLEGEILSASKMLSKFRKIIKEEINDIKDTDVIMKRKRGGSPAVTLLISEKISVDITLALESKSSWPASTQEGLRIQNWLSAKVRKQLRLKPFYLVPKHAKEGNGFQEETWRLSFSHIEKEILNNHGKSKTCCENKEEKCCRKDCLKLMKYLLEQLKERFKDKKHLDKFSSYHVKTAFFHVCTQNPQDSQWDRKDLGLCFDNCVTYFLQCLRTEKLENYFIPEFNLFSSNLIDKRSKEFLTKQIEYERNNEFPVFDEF
Procedure: The ability of an oligonucleotide to inhibit cGAS activity can, for example, be analysed by incubating cells which express cGAS with an oligonucleotide, then stimulating said cells with a cGAS agonist (e.g., 70-bp interferon stimulating DNA or ISD70; 45-bp interferon stimulating DNA or ISD45), and analysing the overall cGAS response in the cell population, or analysing the proportion of cells having cGAS-positive activity after a defined period of time.
In such examples, inhibition of cGAS activity can be identified by observation of an overall decreased cGAS response of the cell population, or a lower proportion of cells having cGAS-positive activity as compared to positive control condition in which cells are treated with cGAS agonist in the absence of the oligonucleotide (or in the presence of an appropriate control inhibitory agent). In one example, THP-1 or HT-29 cells are transfected with ISD70 and incubated with an oligonucleotide. cGAS activity can then be determined by cytokine (e.g., IP-10 and/or IFNβ) expression (e.g., gene and/or protein expression) and/or secretion levels, such as by ELISA. A similar assay can be performed with LL171 cells transfected with ISD45. […] By way of example, cGAS enzymatic activity may be assessed in vitro using recombinant cGAS and then measuring activity thereof by way of a cGAMP ELISA.
as §2

human TLR9 = target: T2, human TLR9 (Homo sapiens, UniProt Q9NR96); assay: HEK-TLR9 NF-κB-luciferase reporter, ODN2006 stimulation; conditions: HEK-TLR9; 500 nM 2′OMe or PS oligos; 200 nM ODN2006
T2 construct: HA; host or cells: 293XL-hTLR9-HA (HEK293)
T2 sequence (Q9NR96 26-1032): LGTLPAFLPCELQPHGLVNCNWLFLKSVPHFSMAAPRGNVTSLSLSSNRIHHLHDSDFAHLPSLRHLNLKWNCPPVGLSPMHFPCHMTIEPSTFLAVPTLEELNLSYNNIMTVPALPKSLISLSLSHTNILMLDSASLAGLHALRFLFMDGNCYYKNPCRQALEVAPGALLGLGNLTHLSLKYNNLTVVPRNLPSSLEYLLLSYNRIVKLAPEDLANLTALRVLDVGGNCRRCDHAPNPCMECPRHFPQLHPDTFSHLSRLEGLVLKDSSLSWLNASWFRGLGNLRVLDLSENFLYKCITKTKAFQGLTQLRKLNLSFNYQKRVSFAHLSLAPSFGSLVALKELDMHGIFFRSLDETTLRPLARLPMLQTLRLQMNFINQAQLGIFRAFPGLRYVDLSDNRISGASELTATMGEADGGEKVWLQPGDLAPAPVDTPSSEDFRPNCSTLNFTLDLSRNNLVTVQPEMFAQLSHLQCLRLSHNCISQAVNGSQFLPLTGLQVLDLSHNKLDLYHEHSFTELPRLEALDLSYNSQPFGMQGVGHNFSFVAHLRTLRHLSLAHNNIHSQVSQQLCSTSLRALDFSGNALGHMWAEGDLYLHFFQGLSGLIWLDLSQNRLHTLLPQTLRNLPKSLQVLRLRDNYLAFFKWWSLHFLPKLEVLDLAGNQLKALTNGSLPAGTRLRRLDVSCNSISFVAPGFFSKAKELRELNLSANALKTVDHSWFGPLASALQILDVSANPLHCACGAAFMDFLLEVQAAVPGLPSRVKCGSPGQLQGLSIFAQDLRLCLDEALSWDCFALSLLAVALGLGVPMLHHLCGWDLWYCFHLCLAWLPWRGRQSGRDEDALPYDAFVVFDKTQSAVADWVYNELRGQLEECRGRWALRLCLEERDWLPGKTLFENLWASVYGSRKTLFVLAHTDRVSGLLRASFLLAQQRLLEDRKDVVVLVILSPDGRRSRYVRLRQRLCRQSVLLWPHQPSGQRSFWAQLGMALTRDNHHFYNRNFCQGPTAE
Procedure: In such examples, inhibition of TLR9 activity can be identified by observation of an overall decreased TLR9 response of the cell population, or a lower proportion of cells having TLR9-positive activity as compared to positive control condition in which cells are treated with TLR9 agonist in the absence of the oligonucleotide (or in the presence of an appropriate control inhibitory agent). In one example, HEK cells are transfected with TLR9 and a NF-κB reporter and incubated with an oligonucleotide and then stimulated with a TLR9 agonist. TLR9 activity can then be determined by a luciferase assay. TLR9 activity can also be analysed by measuring cytokine levels (e.g., IFN, IL-6, TNF and IL-12), for example by ELISA.
as §2
Following transfection, the cells were collected from the 6-wells and aliquoted into 96-wells, just before ASO and overnight TLR stimulation (as above described). Similarly, the LL171 cells expressing and ISRE-Luc reporter were treated overnight. The next day, the cells were lysed in 40 μl (for a 96-well plate) of 1× Glo Lysis buffer (Promega) for 10 min at room temperature. […] was then subjected to firefly luciferase assay using 40 μl of Luciferase Assay Reagent (Promega). Luminescence was quantified with a Fluostar OPTIMA (BMG LABTECH) luminometer.

Substance	inhibition of ISD70-driven IP-10 production (in words) (cGAS)	also measured
mC*mU*mU*mC*mG*T*G*G*G*G*T*C*C*T*T*mU*mU*mC*mA*mC (CUUCGTGGGGTCCTTUUCAC; antisense; sugars from the 5' end m5 d10 m5, all phosphorothioate, methylation of C not given here) [[HPRT]660]	–	TLR8 potentiation of R848 sensing, 20-mer ASOs (in words) (TLR8): strong potentiator of TLR8 sensing
mGmCmGmGmUmAmUmCmCmAmUmGmUmCmCmCmAmGmGmC (GCGGUAUCCAUGUCCCAGGC; all 2'-O-methyl, backbone not given here) [fully 2′Ome modified version of C2Mut1]	strongly blunting of cGAS activation	–
mG*mC*mG*mG*mU*A*T*C*C*A*T*C*A*G*A*mU*mA*mU*mC*mG (mG*mC*mG*mG*mU*dA*dT*dC*dC*dA*dT*dC*dA*dG*dA*mU*mA*mU*mC*mG; antisense) [C2-ASO2-B]	significantly less inhibitory than C2-ASO2-A	–
mC*mC*mA*mA*mC*A*C*T*T*C*G*T*G*G*G*mG*mU*mC*mC*mU (CCAACACTTCGTGGGGUCCU; antisense; sugars from the 5' end m5 d10 m5, all phosphorothioate, methylation of C not given here) [[HPRT]666]	–	inhibition of TLR9 sensing of ODN2006 (in words) (human TLR9): strongly inhibited TLR9

From patent US20240384268A1, “Oligonucleotides” (Hudson Institute of Medical Research, priority 2021, published 2024)
